Experimental data reported in patent publication US7211572B2 (Japan Tobacco Inc., priority 2003, dated 2007).
Counter-ions that a name gives are not always drawn.

These compounds were tested against T1, HIV integrase (Human immunodeficiency virus type 1 group M subtype B, UniProt P12497, F1332H) (assay: Determination of enzyme (HIV integrase) inhibitory activity). Conditions: recombinant HIV integrase (F185H), strand transfer ELISA, absorbance at 450 nm.
T1 construct: HIV integrase full length gene; made in house; host or cells: Escherichia coli BL21(DE3), plasmid pET21a-INH
Type: biochemical
In short: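 Full-length integrase with F185H, expressed in E. coli and purified, was reacted for 60 min at 37 °C with compound and biotinylated donor DNA bound to streptavidin plates. Target DNA was added for 10 min, then anti-digoxigenin-peroxidase detection at A450; IC50 from % inhibition versus enzyme-free blank.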

Compound	IC50 [nM]
COCCNC(=O)c1cn2ccn(Cc3cccc(Cl)c3)c(=O)c2c(O)c1=O [Example 176, N-(2-methoxyethyl)-2-(3-chlorobenzyl)-9-hydroxy-1,8-dioxo-1,8-dihydro-2H-pyrido[1,2-a]pyrazine-7-carboxamide]	10 to 100
O=C(NCCOC(=O)C(F)(F)F)c1cn2ccn(Cc3cccc(Cl)c3)c(=O)c2c(O)c1=O [Example 177, 2-{[2-(3-chlorobenzyl)-9-hydroxy-1,8-dioxo-1,8-dihydro-2H-pyrido[1,2-a]pyrazine-7-carbonyl]amino}ethyl trifluoroacetate]	10 to 100
O=C(NCCO)c1cn2ccn(Cc3cccc(Cl)c3)c(=O)c2c(O)c1=O [Example 178, N-(2-hydroxyethyl)-2-(3-chlorobenzyl)-9-hydroxy-1,8-dioxo-1,8-dihydro-2H-pyrido[1,2-a]pyrazine-7-carboxamide]	10 to 100
O=c1ccn2ccn(Cc3cccc(Cl)c3O)c(=O)c2c1O [Example 179, 2-(3-chloro-2-hydroxybenzyl)-9-hydroxy-2H-pyrido[1,2-a]pyrazine-1,8-dione hydrochloride]	10 to 100
O=C(NCc1ccccc1)c1cn2ccn(Cc3cccc(Cl)c3)c(=O)c2c(O)c1=O [Example 180, N-benzyl-2-(3-chlorobenzyl)-9-hydroxy-1,8-dioxo-1,8-dihydro-2H-pyrido[1,2-a]pyrazine-7-carboxamide]	< 10
O=C(NCC(F)(F)F)c1cn2ccn(Cc3cccc(Cl)c3)c(=O)c2c(O)c1=O [Example 181, N-(2,2,2-trifluoroethyl)-2-(3-chlorobenzyl)-9-hydroxy-1,8-dioxo-1,8-dihydro-2H-pyrido[1,2-a]pyrazine-7-carboxamide]	10 to 100
CCCCN(C)C(=O)c1cn2ccn(Cc3cccc(Cl)c3)c(=O)c2c(O)c1=O [Example 182, N-butyl-N-methyl-2-(3-chlorobenzyl)-9-hydroxy-1,8-dioxo-1,8-dihydro-2H-pyrido[1,2-a]pyrazine-7-carboxamide]	10 to 100
COCCN(C)C(=O)c1cn2ccn(Cc3cccc(Cl)c3)c(=O)c2c(O)c1=O [Example 183, N-(2-methoxyethyl)-N-methyl-2-(3-chlorobenzyl)-9-hydroxy-1,8-dioxo-1,8-dihydro-2H-pyrido[1,2-a]pyrazine-7-carboxamide]	10 to 100
O=C(c1cn2ccn(Cc3cccc(Cl)c3)c(=O)c2c(O)c1=O)N1CCCC1 [Example 184, 2-(3-chlorobenzyl)-9-hydroxy-7-(pyrrolidine-1-carbonyl)-2H-pyrido[1,2-a]pyrazine-1,8-dione]	10 to 100
O=C(c1cn2ccn(Cc3cccc(Cl)c3)c(=O)c2c(O)c1=O)N1CCOCC1 [Example 185, 2-(3-chlorobenzyl)-9-hydroxy-7-(morpholine-4-carbonyl)-2H-pyrido[1,2-a]pyrazine-1,8-dione]	10 to 100
COc1cc(Cn2ccn3ccc(=O)c(O)c3c2=O)ccc1Cl [Example 186, 2-(4-chloro-3-methoxybenzyl)-9-hydroxy-2H-pyrido[1,2-a]pyrazine-1,8-dione hydrochloride]	10 to 100
COC(=O)Cc1cn2ccn(Cc3cccc(Cl)c3)c(=O)c2c(O)c1=O [Example 187, methyl [2-(3-chlorobenzyl)-9-hydroxy-1,8-dioxo-1,8-dihydro-2H-pyrido[1,2-a]pyrazin-7-yl]acetate]	10 to 100
O=c1c(-c2nnn[nH]2)cn2ccn(Cc3cccc(Cl)c3)c(=O)c2c1O [Example 188, 2-(3-chlorobenzyl)-9-hydroxy-7-(1H-tetrazol-5-yl)-2H-pyrido[1,2-a]pyrazine-1,8-dione hydrochloride]	10 to 100
CNC(=O)Cc1cn2ccn(Cc3cccc(Cl)c3)c(=O)c2c(O)c1=O [Example 189, 2-[2-(3-chlorobenzyl)-9-hydroxy-1,8-dioxo-1,8-dihydro-2H-pyrido[1,2-a]pyrazin-7-yl]-N-methylacetamide]	10 to 100
CN(C)C(=O)Cc1cn2ccn(Cc3cccc(Cl)c3)c(=O)c2c(O)c1=O [Example 190, 2-[2-(3-chlorobenzyl)-9-hydroxy-1,8-dioxo-1,8-dihydro-2H-pyrido[1,2-a]pyrazin-7-yl]-N,N-dimethylacetamide]	10 to 100
O=C(O)Cc1cn2ccn(Cc3cccc(Cl)c3)c(=O)c2c(O)c1=O [Example 191, [2-(3-chlorobenzyl)-9-hydroxy-1,8-dioxo-1,8-dihydro-2H-pyrido[1,2-a]pyrazin-7-yl]acetic acid]	10 to 100
CC(O)CNC(=O)c1cn2ccn(Cc3cccc(Cl)c3)c(=O)c2c(O)c1=O (centres unmarked) [Example 192, N-(2-hydroxypropyl)-2-(3-chlorobenzyl)-9-hydroxy-1,8-dioxo-1,8-dihydro-2H-pyrido[1,2-a]pyrazine-7-carboxamide hydrochloride]	10 to 100
O=C(O)CNC(=O)c1cn2ccn(Cc3cccc(Cl)c3)c(=O)c2c(O)c1=O [Example 193, {[2-(3-chlorobenzyl)-9-hydroxy-1,8-dioxo-1,8-dihydro-2H-pyrido[1,2-a]pyrazine-7-carbonyl]amino}acetic acid]	10 to 100
CN(C)C(=O)CNC(=O)c1cn2ccn(Cc3cccc(Cl)c3)c(=O)c2c(O)c1=O [Example 194, N-dimethylcarbamoylmethyl-2-(3-chlorobenzyl)-9-hydroxy-1,8-dioxo-1,8-dihydro-2H-pyrido[1,2-a]pyrazine-7-carboxamide]	10 to 100
CNC(=O)CNC(=O)c1cn2ccn(Cc3cccc(Cl)c3)c(=O)c2c(O)c1=O [Example 195, N-methylcarbamoylmethyl-2-(3-chlorobenzyl)-9-hydroxy-1,8-dioxo-1,8-dihydro-2H-pyrido[1,2-a]pyrazine-7-carboxamide]	10 to 100
O=C(Nc1ccccc1)c1cn2ccn(Cc3cccc(Cl)c3)c(=O)c2c(O)c1=O [Example 196, N-phenyl-2-(3-chlorobenzyl)-9-hydroxy-1,8-dioxo-1,8-dihydro-2H-pyrido[1,2-a]pyrazine-7-carboxamide hydrochloride]	10 to 100
O=c1c(-c2ncco2)cn2ccn(Cc3cccc(Cl)c3)c(=O)c2c1O [Example 197, 2-(3-chlorobenzyl)-9-hydroxy-7-(oxazol-2-yl)-2H-pyrido[1,2-a]pyrazine-1,8-dione hydrochloride]	10 to 100
O=C(c1cn2ccn(Cc3cccc(Cl)c3)c(=O)c2c(O)c1=O)N1CCC(O)C1 (centres unmarked) [Example 198, 2-(3-chlorobenzyl)-9-hydroxy-7-(3-hydroxypyrrolidine-1-carbonyl)-2H-pyrido[1,2-a]pyrazine-1,8-dione hydrochloride]	10 to 100
CC(=O)CNC(=O)c1cn2ccn(Cc3cccc(Cl)c3)c(=O)c2c(O)c1=O [Example 199, N-(2-oxopropyl)-2-(3-chlorobenzyl)-9-hydroxy-1,8-dioxo-1,8-dihydro-2H-pyrido[1,2-a]pyrazine-7-carboxamide]	10 to 100
O=C(Cn1ccn2ccc(=O)c(O)c2c1=O)Nc1ccccc1 [Example 200, 2-(9-hydroxy-1,8-dioxo-1,8-dihydro-pyrido[1,2-a]pyrazin-2-yl)-N-phenylacetamide hydrochloride]	100 to 1000
O=C1CCN(C(=O)c2cn3ccn(Cc4cccc(Cl)c4)c(=O)c3c(O)c2=O)C1 [Example 201, 2-(3-chlorobenzyl)-9-hydroxy-7-(3-oxopyrrolidine-1-carbonyl)-2H-pyrido[1,2-a]pyrazine-1,8-dione]	10 to 100
